Two compounds from US7357930B1, “Methods and formulations for targeting infectious agents bearing host cell proteins” (Infectio Recherche Inc., priority 1999, dated 2008) can be followed below.

Data set [1] has as its system HIV-1-based luciferase reporter viruses with HXB2, AML-V or VSV-G env. In kind it is cell-based.
Another data set concerns HIV-1NL4-3. Kind of data set: AmB inhibition of HIV-1NL4-3 replication in 1G5 cells (luciferase activity).
In another data set the test system is Mono Mac 1 cell line. The data set is described as follows: Toxicity in Mono Mac 1 cells. The following applies: data not shown. Type of data set: cell-based.
A further data set deals with 1G5 cells. The data set is described as follows: Cellular viability / toxicity in 1G5 cells. The following applies: 72 h, concentration range tested (0-10 μg/ml), data not shown. Type of data set: cell-based.

Where two headings read alike, the source gives them in different places.

Experimental for HIV-1NL4-3: In a second set of experiments, AmB and the virus were added simultaneously to cells and incubation was made during the first two hours of infection (open square).
Infection was monitored by measuring the luciferase activity. […] Thereafter, an aliquot of this cell lysate (20 μl) was mixed with 100 μl of luciferase assay buffer and activity was evaluated using a microplate luminometer.

`CC(C)(C)NC(=O)[C@@H]1CN(Cc2cccnc2)CCN1C[C@@H](O)C[C@@H](Cc1ccccc1)C(=O)N[C@H]1c2ccccc2C[C@H]1O` [Free indinavir, indinavir]: the “Area under the curve of indinavir” value is listed as 4.9 μmoles lipids/g tissues/h (Brachial lymph nodes); 7.6 μmoles lipids/g tissues/h (Cervical lymph nodes); 4.1 μmoles lipids/g tissues/h (Inguinal lymph nodes); 35.0 μmoles lipids/g tissues/h (Liver); 6.4 μmoles lipids/g tissues/h (Mesenteric lymph nodes); 2.3 μmoles lipids/g tissues/h (Plasma). Besides, the “Area under the curve of indinavir” value (Popliteal lymph nodes) came to 4.5 μmoles lipids/g tissues/h and the “Area under the curve of indinavir” value (Spleen) is listed as 5.3 μmoles lipids/g tissues/h. Moreover, the “drug levels in lymphoid tissues” value (all lymphoid tissues) is “very low drug levels”.

Turning to `C[C@@H]1[C@H](O)[C@@H](C)/C=C/C=C/C=C/C=C/C=C/C=C/C=C/[C@H](O[C@@H]2O[C@H](C)[C@@H](O)[C@H](N)[C@@H]2O)C[C@@H]2O[C@](O)(C[C@@H](O)C[C@@H](O)[C@H](O)CC[C@@H](O)C[C@@H](O)CC(=O)O[C@H]1C)C[C@H](O)[C@H]2C(=O)O` [AmB, amphotericin B], the “inhibition of infection with pseudotyped virions” value in data set [1] was “efficient to inhibit infection”. Further, the “concentration giving complete inhibition of HIV-1NL4-3 replication” value in the data set with HIV-1NL4-3 (1G5 cells pretreated with AmB) turned out to be 10 μg AmB/ml. Further, the “inhibition of viral replication” value in the data set on HIV-1NL4-3 (AmB added to infected cells after adsorption, 10 μg AmB/ml, 72 h) was found to be 40%. For the same compound, the “concentration giving complete abrogation of viral replication” value with HIV-1NL4-3 (cell-free virus pretreated 1 h at 37° C.) is given as 5 μg AmB/ml. Also, the viral particles inactivated entry with HIV-1NL4-3 (cell-free virus pretreated 1 h at 37° C. with 1 μg AmB/ml) is listed as “About 50%”. For the same compound, the “concentration giving complete inhibition of HIV-1 replication” value with HIV-1NL4-3 (virus and AmB added simultaneously to cells (no pretreatment)) is 10 μg AmB/ml. Moreover, the toxicity result in the data set with Mono Mac 1 cell line was “without significant toxicity”. The cellular viability entry with 1G5 cells is given as “did not affect the cellular viability”.
